Assay results: ChEMBL document CHEMBL1201862, “PubChem BioAssay data set” (2004)
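Protocol summary: plate cells (96-well), add compound at 5 concentrations, incubate 48 h, interpolate endpoints linearly. Here, GI50 denotes the concentration required for 50% inhibition of growth.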 The source made the active and inactive calls. No stated cut-off is given here; in the data, active = GI50 up to about 1.1 µM and inactive = higher.

Assays:
Test in all cases: growth of human tumour cells (NCI), 48 h
DLD-1 = system: DLD-1
DMS-114 = system: DMS-114
DMS-273 = system: DMS-273
HOP-18 = system: HOP-18
M19-MEL = system: M19-MEL
SNB-78 = system: SNB-78
LXFL 529 = system: LXFL 529
RXF 631 = system: RXF 631
XF498 = system: XF498

Measured: GI50

O=NN1C(c2ccccc2)CNC(=O)CC1c1ccccc1 (centres undefined)
inactive: DLD-1 44.2 µM | DMS-114 22.7 µM | DMS-273 27.4 µM | HOP-18 > 100 µM | M19-MEL 50.1 µM | SNB-78 > 91.4 µM

O=c1[nH]c(=O)n(C2CC(O)C(CO)O2)cc1C#Cc1cc(C(F)(F)F)cc(C(F)(F)F)c1 (centres undefined)
inactive: DLD-1 > 29.4 µM | DMS-114 > 31.2 µM | LXFL 529 > 30.1 µM | M19-MEL > 31.3 µM | RXF 631 21.3 µM | SNB-78 50.7 µM | XF498 21 µM

COc1ccc(C[C@H](N)C(=O)N2C[C@H](CO)C[C@H](n3cnc4c(N(C)C)ncnc43)C2)cc1
inactive: DLD-1 > 100 µM | DMS-114 > 100 µM | DMS-273 > 100 µM | HOP-18 45.7 µM | LXFL 529 > 100 µM | M19-MEL > 100 µM

COC1C(=[N+]=[N-])C(=O)NC(=O)N1C1OC(COC(c2ccccc2)(c2ccccc2)c2ccccc2)C(O)C1O (centres undefined)
inactive: DLD-1 17.3 µM | HOP-18 21.1 µM | LXFL 529 17.6 µM | M19-MEL 19.4 µM | SNB-78 18 µM

CCOC(=O)C(C(C)=O)C1CC=CC1 (centres undefined)
inactive: DLD-1 > 100 µM | DMS-114 > 100 µM | DMS-273 > 100 µM | LXFL 529 > 100 µM | RXF 631 > 100 µM | SNB-78 > 100 µM | XF498 > 100 µM

CC1(C)CCC[C@@]2(C)C1C[C@H](O)[C@@]1(C)O[C@@](C)([C@H](O)CO)CCC21 (some centres undefined)
inactive: DMS-114 25.3 µM | DMS-273 44.2 µM | HOP-18 26.1 µM | LXFL 529 43.2 µM | M19-MEL 40.8 µM | RXF 631 86.9 µM | SNB-78 40.3 µM | XF498 38.7 µM
